A short description of experiment [1]: P. falciparum late gametocyte killing, dose response, luminescence (AID 1117278).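 Note: gametocytes exposed to compound for 24 hours.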 Format: functional, cell-based.
Experiment [2] in a line: Jurkat T cell cytotoxicity, dose response, cytotoxicity control for P. falciparum gametocyte viability project, luminescence (AID 1117277).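 Note: potency reflects loss of cellular ATP meaning fewer viable cells.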 Format: functional, cell-based.
In experiment [3] the target is Protein Tat (Human immunodeficiency virus type 1 group M subtype B (isolate HXB2)(HIV-1), UniProt P04608). Format: functional.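 Note: tat binding to TAR RNA read out by fluorescence polarization.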
Chain of Protein Tat (P04608 whole entry): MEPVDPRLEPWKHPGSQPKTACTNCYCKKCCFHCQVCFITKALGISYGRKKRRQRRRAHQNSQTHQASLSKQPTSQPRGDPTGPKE
For experiment [4], the target named is Mitochondrial peptide methionine sulfoxide reductase (Bos taurus, UniProt P54149). In words: Absorbance-based biochemical high throughput dose response assay for activators of Methionine sulfoxide reductase A (MsrA). The format is functional.
Chain of Mitochondrial peptide methionine sulfoxide reductase (P54149 whole entry): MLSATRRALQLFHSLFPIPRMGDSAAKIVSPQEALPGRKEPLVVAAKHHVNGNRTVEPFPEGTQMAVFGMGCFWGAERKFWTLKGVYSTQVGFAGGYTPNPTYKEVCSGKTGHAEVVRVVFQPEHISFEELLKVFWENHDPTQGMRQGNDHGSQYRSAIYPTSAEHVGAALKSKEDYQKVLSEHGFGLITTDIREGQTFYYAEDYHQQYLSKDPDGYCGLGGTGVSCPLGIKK
Experiment [5] deals with T1, Corticotropin-releasing factor receptor 2/Corticotropin-releasing factor-binding protein (Homo sapiens, UniProt P24387+Q13324).
T1 sequence (Q13324 whole entry): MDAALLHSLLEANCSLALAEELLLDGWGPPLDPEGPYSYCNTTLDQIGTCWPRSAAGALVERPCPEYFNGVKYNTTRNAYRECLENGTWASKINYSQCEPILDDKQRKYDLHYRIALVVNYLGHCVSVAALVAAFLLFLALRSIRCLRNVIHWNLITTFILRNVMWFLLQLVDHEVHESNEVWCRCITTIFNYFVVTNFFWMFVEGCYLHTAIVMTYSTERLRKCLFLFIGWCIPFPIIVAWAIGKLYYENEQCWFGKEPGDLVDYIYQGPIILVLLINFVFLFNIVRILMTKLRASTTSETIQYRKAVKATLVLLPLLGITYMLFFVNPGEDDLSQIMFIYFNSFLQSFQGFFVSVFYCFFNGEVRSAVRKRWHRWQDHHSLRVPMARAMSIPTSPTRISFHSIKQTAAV
T1 sequence (P24387 whole entry): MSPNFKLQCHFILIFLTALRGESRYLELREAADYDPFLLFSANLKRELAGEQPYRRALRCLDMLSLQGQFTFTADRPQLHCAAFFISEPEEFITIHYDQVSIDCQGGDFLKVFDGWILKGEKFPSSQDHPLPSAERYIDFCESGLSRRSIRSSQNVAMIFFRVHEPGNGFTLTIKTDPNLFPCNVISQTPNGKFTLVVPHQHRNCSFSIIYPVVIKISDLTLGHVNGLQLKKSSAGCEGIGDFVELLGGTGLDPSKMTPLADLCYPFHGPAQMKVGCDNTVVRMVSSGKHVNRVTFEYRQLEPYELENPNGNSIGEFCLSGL
In words: activators of CRF receptor 2 with binding protein – uHTS hits, confirmation (AID 602473). To be noted: read-out: EC50_Mean. Format: functional.

Experiment [6] concerns the target T2, Caspase-6 (Homo sapiens, UniProt P55212).
T2 sequence (P55212 whole entry): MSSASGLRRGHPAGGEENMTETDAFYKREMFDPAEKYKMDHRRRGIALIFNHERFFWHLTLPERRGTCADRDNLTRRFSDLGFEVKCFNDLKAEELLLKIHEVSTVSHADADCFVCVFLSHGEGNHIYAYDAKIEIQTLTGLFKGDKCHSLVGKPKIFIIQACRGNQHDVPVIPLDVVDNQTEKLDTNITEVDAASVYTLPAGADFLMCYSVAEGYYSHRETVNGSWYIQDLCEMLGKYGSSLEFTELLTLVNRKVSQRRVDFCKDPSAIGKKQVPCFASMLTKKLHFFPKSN
In words: human caspase-6 inhibitors, dose response, biochemical, VEID-R110 fluorescence, cherry-pick (AID 720632).

The target of experiment [7] is T3, Histone-lysine N-methyltransferase NSD2 (Homo sapiens, UniProt O96028).
T3 sequence (O96028 whole entry): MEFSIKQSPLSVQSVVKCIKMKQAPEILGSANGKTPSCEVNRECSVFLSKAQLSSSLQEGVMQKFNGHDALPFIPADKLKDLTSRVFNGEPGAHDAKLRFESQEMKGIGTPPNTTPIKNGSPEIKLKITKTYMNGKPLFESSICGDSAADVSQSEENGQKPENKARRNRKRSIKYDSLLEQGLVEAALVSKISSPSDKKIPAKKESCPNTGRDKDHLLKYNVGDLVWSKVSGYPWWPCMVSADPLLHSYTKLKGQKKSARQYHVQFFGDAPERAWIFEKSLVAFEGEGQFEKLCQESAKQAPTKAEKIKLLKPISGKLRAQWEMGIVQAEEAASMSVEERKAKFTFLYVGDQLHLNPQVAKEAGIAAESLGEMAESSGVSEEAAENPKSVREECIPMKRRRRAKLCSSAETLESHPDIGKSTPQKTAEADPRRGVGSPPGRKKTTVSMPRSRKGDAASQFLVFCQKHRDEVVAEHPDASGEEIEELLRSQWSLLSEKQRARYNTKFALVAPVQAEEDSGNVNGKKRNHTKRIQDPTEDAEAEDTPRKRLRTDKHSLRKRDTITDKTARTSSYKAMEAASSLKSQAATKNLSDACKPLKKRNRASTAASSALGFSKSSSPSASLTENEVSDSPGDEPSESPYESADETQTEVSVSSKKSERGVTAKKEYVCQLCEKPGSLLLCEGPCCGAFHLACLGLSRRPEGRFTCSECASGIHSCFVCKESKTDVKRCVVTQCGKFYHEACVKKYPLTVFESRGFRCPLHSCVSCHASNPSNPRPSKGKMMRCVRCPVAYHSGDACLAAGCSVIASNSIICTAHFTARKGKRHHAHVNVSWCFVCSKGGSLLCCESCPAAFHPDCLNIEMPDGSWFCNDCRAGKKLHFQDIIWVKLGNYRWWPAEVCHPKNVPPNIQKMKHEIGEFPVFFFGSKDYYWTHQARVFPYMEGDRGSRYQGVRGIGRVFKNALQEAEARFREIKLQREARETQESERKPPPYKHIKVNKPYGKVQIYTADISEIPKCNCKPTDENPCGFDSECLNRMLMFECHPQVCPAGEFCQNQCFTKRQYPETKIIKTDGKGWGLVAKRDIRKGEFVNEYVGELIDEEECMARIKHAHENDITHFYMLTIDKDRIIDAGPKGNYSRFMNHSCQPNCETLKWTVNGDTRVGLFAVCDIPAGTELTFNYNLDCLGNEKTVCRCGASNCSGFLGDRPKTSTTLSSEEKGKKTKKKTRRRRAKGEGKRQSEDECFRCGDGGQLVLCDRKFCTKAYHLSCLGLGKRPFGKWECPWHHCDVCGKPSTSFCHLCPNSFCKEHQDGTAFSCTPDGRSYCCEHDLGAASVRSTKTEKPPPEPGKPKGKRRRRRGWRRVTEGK
Format: biochemical.

In experiment [8] the target is T4, Caspase-7 (Homo sapiens, UniProt P55210).
T4 sequence (P55210 whole entry): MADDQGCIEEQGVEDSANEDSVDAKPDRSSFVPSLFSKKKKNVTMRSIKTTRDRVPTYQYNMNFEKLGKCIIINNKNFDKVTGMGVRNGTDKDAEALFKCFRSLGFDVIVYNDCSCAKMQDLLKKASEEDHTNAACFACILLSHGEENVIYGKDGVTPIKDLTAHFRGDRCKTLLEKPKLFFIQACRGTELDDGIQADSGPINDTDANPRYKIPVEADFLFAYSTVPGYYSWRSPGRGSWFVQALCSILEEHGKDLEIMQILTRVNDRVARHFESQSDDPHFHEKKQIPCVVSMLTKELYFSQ
The experiment can be described thus: human caspase-7 inhibitors, dose response, selectivity assay for caspase-6 inhibitor project, biochemical, DEVD-R110 fluorescence, cherry-pick (AID 743295). The format is […].

In experiment [9] the target is Paired box protein Pax-8 (Homo sapiens, UniProt Q06710). In words: inhibitors of PAX8-driven TPO luciferase reporter, dose response, RMG-I cells, cherry-pick (AID 687027).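 Note: luciferase reporter driven by Pax8 target thyroperoxidase promoter measured by SteadyGlo luminescence.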 Format: functional, cell-based.
Chain of Paired box protein Pax-8 (Q06710 whole entry): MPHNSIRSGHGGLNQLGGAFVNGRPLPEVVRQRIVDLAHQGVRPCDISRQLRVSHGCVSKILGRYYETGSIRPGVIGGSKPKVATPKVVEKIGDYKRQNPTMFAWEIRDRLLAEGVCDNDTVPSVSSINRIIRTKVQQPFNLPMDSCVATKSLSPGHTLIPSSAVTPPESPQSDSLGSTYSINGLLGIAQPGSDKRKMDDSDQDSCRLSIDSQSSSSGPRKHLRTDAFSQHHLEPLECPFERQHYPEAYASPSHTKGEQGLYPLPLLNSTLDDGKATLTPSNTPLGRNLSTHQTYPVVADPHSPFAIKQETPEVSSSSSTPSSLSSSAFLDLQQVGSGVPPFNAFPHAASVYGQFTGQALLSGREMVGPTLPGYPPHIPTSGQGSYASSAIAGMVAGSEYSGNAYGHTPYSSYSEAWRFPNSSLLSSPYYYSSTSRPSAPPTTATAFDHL
The nature of experiment [10]: A2780 ovarian cancer cell cytotoxicity, dose response, cytotoxicity control, plate reader, dry powder samples (AID 743046). Format: functional, cell-based.
A short description of experiment [11]: NIH:OVCAR-3 ovarian cancer cell cytotoxicity, dose response, PAX8 inhibitor project, plate reader, dry powder samples (AID 743044). The format is functional, cell-based.
The nature of experiment [12]: cytotoxicity in OVCAR8 ovarian cancer cells, dose response, PAX8 project, cell-based, plate reader, dry powder samples (AID 743197). The format is functional. To be noted: OVCAR-8.
Experiment [13] in a line: IGROV1 ovarian cancer cell cytotoxicity, dose response, PAX8 inhibitor project, plate reader, dry powder samples (AID 743043). Format: functional, cell-based. To be noted: IGROV-1.
Experiment [14] in a line: inhibitors of PGC1a acetylation in cells, dose response, cell-based, cherry-picked samples (AID 720514).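 Note: potency may reflect raised or lowered acetylation signal.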 Format: functional.
Experiment [15] is described as follows: A375 melanoma cell viability loss, dose response, counter-screen for MITF inhibitor project, CellTiter-Glo luminescence, dry powder, set 4 (AID 624364).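 Note: A375 melanoma cells are MITF independent so this is a counter screen.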 Particulars: A-375. The format is functional, cell-based.
The nature of experiment [16]: A375 melanoma cell cytotoxicity, dose response, counter-screen for MITF inhibitor project, CellTiter-Glo luminescence, dry powder, set 2 (AID 624489).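 Note: actives are compounds lowering A375 viability meaning general cytotoxicity.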 The format is functional, cell-based. Particulars: A-375.
Experiment [17] in a line: HeLa 2N DNA content increase, dose response, cell-based, IC50 (AID 1117349). The format is functional.
The nature of experiment [18]: Concentration-dependent survival of SW480 colon cancer line, luminescence detection with CellTiter-Glo, half-maximal inhibitory concentration (AID 1117338). The format is functional.
A short description of experiment [19]: RKO cell viability reduction, dose response, CellTiter-Glo luminescence (AID 1117322). Format: functional.
Experiment [20] in a line: cytotoxicity toward HCT116 cells – cell-based, CellTiter-Glo luminescence, IC50, dose response (AID 1117332). Format: functional. To be noted: HCT-116.
The nature of experiment [21]: SNU-C1 cell viability reduction, dose response, CellTiter-Glo luminescence (AID 1117323). The format is functional, cell-based.
A short description of experiment [22]: cytotoxicity toward Colo320 cells – cell-based, CellTiter-Glo luminescence, IC50, dose response (AID 1117334). Format: functional. Particulars: COLO 320.
The nature of experiment [23]: HeLa 4N DNA content increase, dose response, cell-based, IC50 (AID 1117351). The format is functional.
A short description of experiment [24]: cytotoxicity toward HT-29 cells – cell-based, CellTiter-Glo luminescence, IC50, dose response (AID 1117330). Format: functional.
A short description of experiment [25]: CellTiter-Glo luminescent dose response of DLD-1 viability loss (AID 1117352). Format: functional.
Experiment [26] in a line: HCT116 cell viability decrease, GSK3B pretreatment – CellTiter-Glo, IC50, dose response (AID 1117339). Format: functional. To be noted: HCT-116.

This passage reports IC50, EC50 and AC50 results from ChEMBL document CHEMBL1201862, “PubChem BioAssay data set” (2004).

Active and inactive are the calls of the source.

With `[O-][n+]1ccc(C2CC2)cc1`, the IC50 in experiment [1] was > 109 µM (inactive); in experiment [2], > 83.4 µM (inactive).

In the case of `Cc1ccc(CCC(=O)Nc2ccc(S(N)(=O)=O)cc2)o1`, in [3], the IC50 is > 100 µM (active).

Turning to `CCCN(CCC)C(=O)Cn1c(=O)n(CCC(=O)NCCc2ccccc2)c(=O)c2ccccc21`, the results for the IC50 in experiment [1] and in [2] were > 109 µM (inactive) and > 83.3 µM (inactive), respectively.

Take `COCCn1c2nc(=O)n(-c3ccccc3)c(=O)c-2nc2ccccc21`: the figures for the EC50 in experiment [4] and in experiment [5] were 95.4 µM (inactive) and 5.14 µM (active), respectively. The AC50 was 3.93 µM (active) in experiment [6], 12.7 µM (active) in experiment [7] and 8.13 µM (active) in experiment [8].

Consider `C[C@H]1CN([C@@H](C)CO)S(=O)(=O)c2ccc(C#Cc3ccccc3F)cc2O[C@@H]1CN(C)CC1CCOCC1`, for which the AC50 in [9] was 10.4 µM (active); in experiment [10], < 0.26 µM (active); in experiment [11], 34.1 µM (active); in experiment [12] it was 28.9 µM (active).

On to `C[C@@H]1CCCCO[C@H](CN(C)Cc2ccc(C(F)(F)F)cc2)[C@H](C)CN([C@@H](C)CO)C(=O)c2cc(NS(=O)(=O)c3ccc(F)cc3)ccc2O1`, for which the AC50 in [9] is 5.17 µM (active); in experiment [10], 55.3 µM (active); in [11], 24 µM (active); in experiment [13] it was 37 µM (active); in experiment [12], 36.9 µM (active).

For the compound `O=C1C=CCCN1C(=O)/C=C/c1cccc(C(F)(F)F)c1`, the AC50 in experiment [14] was 1.77 µM (active).

`C[C@@H](NC1=C(Nc2ccccc2)C(=O)c2ccccc2C1=O)c1ccccc1`: the AC50 is > 70 µM (inactive) in [15] and 48.5 µM (active) in experiment [16].

As to `CCCCOC(=O)c1ccc(N)cc1` [BUTAMBEN], the IC50 was > 10 µM (inactive) in experiment [17]; 0.586 µM (active) in experiment [18]; 0.137 µM (active) in experiment [19]; > 20 µM (inactive) in experiment [20]; > 20 µM (inactive) in experiment [21]; > 20 µM (inactive) in experiment [22]. The IC50 was > 10 µM (inactive) in [23], > 20 µM (inactive) in experiment [24] and 4.56 µM (active) in [25].

Turning to `COc1ccc2cc1Oc1ccc(cc1)C[C@H]1c3c(cc4c(c3Oc3cc5c(cc3OC)CCN(C)[C@@H]5C2)OCO4)CCN1C` [CEPHARANTHINE], the IC50 in [17] is > 10 µM (inactive); in [18], 0.308 µM (active); in [19] it was 3.79 µM (active); in experiment [22] it was 1.43 µM (active); in [23] it was > 10 µM (inactive); in experiment [24], 1.36 µM (active). Besides, the IC50 in experiment [26] is 3.57 µM (active).
